Assay [1] has as its target T1, human cannabinoid receptor type 1 (Homo sapiens, UniProt P21554).
T1 construct: purchased Perkin Elmer RBHCB1M; host or cells: HEK 293 EBNA cells
Nature of the assay: Human CB1 Radioligand Binding Assay (basis of selectivity, CB2 vs. CB1). Particulars: CB1: HEK 293 EBNA cells expressing human CB1; CB2: CHO CB2 membranes. On the procedure:
2. Human CB1 Radioligand Binding Assay
The incubation buffer was composed of 50 mM Tris-HCl pH 7.4, 2.5 mM EDTA, 5 mM MgCl2, 5.0 mg/ml fatty acid free BSA and the wash buffer was composed of 50 mM Tris-HCl pH 7.4, 2.5 mM EDTA, 5 mM MgCl2, 0.5 mg/ml fatty acid free BSA.

Assay [2] has as its target T2, human cannabinoid receptor type 2 (Homo sapiens, UniProt P34972).
T2 construct: expressed in transfected cells; membrane preparation
The experiment in a line: Human CB2 Radioligand Binding Assay. Particulars: membranes from stably transfected CHO CB2 cells. The method in brief:
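Filtration competition binding on membranes from CHO cells stably expressing human CB2, with [3H]CP-55,940 at its lot-specific Kd, in 50 mM Tris-HCl pH 7.4, EGTA, MgCl2, 5 mg/ml BSA, 1% DMSO; 90 min at 30° C. Compounds at 10 uM single point or dose-response; bound radioactivity by scintillation, 100 nM CP-55,940 as 100% efficacy.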

[3] abbreviates: competition with [3H] CP-55,940, read-out: CB2 Ligand Binding Asssay EC50.
[4] abbreviates: CB2 Ligand Binding Asssay EC50, competition with [3H] CP-55,940.

Like-named read-outs stand apart in the source and are kept apart here. A value given as a limit tells only on which side of the number the result lay.

T1 sequence (P21554 whole entry): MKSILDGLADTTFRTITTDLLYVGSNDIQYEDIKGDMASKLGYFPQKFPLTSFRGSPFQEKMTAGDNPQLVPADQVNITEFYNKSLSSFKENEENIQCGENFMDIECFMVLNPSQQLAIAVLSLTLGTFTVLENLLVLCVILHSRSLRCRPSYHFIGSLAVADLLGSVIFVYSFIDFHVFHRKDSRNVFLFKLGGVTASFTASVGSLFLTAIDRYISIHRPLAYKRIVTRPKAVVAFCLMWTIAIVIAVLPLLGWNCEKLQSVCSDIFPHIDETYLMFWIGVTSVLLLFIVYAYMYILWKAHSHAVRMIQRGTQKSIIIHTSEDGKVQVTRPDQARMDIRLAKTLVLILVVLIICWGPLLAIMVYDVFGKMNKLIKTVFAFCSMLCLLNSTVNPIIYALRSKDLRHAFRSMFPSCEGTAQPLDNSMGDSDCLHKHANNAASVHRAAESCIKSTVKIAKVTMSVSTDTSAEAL
T2 sequence (P34972 whole entry): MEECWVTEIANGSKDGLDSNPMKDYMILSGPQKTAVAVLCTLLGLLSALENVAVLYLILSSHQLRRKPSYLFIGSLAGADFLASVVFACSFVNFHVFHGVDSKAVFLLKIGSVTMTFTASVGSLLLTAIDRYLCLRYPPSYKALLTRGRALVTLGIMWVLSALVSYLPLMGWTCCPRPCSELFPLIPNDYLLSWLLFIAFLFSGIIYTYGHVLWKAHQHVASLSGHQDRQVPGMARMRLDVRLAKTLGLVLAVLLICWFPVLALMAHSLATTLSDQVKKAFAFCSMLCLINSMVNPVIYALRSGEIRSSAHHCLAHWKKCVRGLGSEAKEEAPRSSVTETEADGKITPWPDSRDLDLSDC

For orientation: EC50 means the concentration at which the effect is half-maximal. In the case of `COc1ccc(Cc2nc(N3CCCCC3)c3ccccc3n2)cc1` [Example 336, 2-(4-Methoxybenzyl)-4-(piperidin-1-yl)quinazoline], the “Selectivity, CB2 vs. CB1” value in assay [1] is “+ (+ indicates > 10−fold)”. The concentration for a half-maximal effect (EC50) in assay [2] (setting [3]) is over 1 µM.

In the case of `c1ccc(NCc2nc(Nc3ccccc3)c3ccccc3n2)cc1` [Example 303, N-Phenyl-2-((phenylamino)methyl)quinazolin-4-amine], in assay [1], the “Selectivity, CB2 vs. CB1” value is reported as “− (− indicates ≦ 10−fold)”. In addition, the concentration for a half-maximal effect (EC50) in assay [2] (setting [3]) was over 1 µM.

Turning to `Fc1ccccc1-c1nc(N2CCCC2)c2c(F)cccc2n1` [Example 282, 5-Fluoro-2-(2-fluorophenyl)-4-(pyrrolidin-1-yl)quinazoline], the “Selectivity, CB2 vs. CB1” value in assay [1] is “+ (+ indicates > 10−fold)”. In assay [2] (setting [3]), the EC50 is under 1 µM.

Consider `CCOC(=O)N1CCN(c2nc(-c3ccc(Cl)cc3Cl)nc3ccccc23)CC1` [Example 203, Ethyl 4-(2-(2,4-dichlorophenyl)quinazolin-4-yl)piperazine-1-carboxylate], for which, in assay [1], the “Selectivity, CB2 vs. CB1” value is given as “− (− indicates ≦ 10−fold)”. Moreover, the EC50 in assay [2] (setting [3]) is over 1 µM.

For `Fc1ccccc1-c1nc(N2CCCC2)c2cc(Cl)ccc2n1` [Example 273, 6-Chloro-2-(2-fluorophenyl)-4-(pyrrolidin-1-yl)quinazoline], the “Selectivity, CB2 vs. CB1” value in assay [1] is reported as “− (− indicates ≦ 10−fold)”. The EC50 in assay [2] (setting [3]) is under 1 µM.

On to `Cc1ccccc1Cc1nc(N2CCCC2)c2ccccc2n1` [Example 341, 2-(2-Methylbenzyl)-4-(pyrrolidin-1-yl)quinazoline], for which, in assay [1], the “Selectivity, CB2 vs. CB1” value is on record as “− (− indicates ≦ 10−fold)”. Besides, the EC50 in assay [2] (setting [3]) is under 1 µM.

As for `Clc1ccccc1-c1nc(NCCc2ccccn2)c2ccccc2n1` [Example 191, 2-(2-Chlorophenyl)-N-(2-(pyridine-2-yl)ethyl)quinazolin-4-amine], in assay [1], the “Selectivity, CB2 vs. CB1” value was “− (− indicates ≦ 10−fold)”. Besides, the EC50 in assay [2] (setting [3]) is over 1 µM.

Regarding `CCOC(=O)N1CCN(c2nc(-c3ccccc3Cl)nc3ccc(OC)cc23)CC1` [Example 217, Ethyl 4-(2-(2-chlorophenyl)-6-methoxyquinazolin-4-yl)piperazine-1-carboxylate], the “Selectivity, CB2 vs. CB1” value in assay [1] is given as “+ (+ indicates > 10−fold)”. For the same compound, the concentration giving a half-maximal response (EC50) in assay [2] (setting [3]) was under 1 µM.

`CC(=O)N1CCN(c2nc(-c3ccccc3F)nc3ccccc23)CC1` [Example 153, 1-(4-(2-(2-Fluorophenyl)quinazolin-4-yl)piperazin-1-yl)ethanone]: the “Selectivity, CB2 vs. CB1” value in assay [1] is “+ (+ indicates > 10−fold)”. The EC50 in assay [2] (setting [3]) was under 1 µM.

Take `CC(C)OC(=O)N1CCN(c2nc(-c3ccccc3Cl)nc3ccccc23)CC1` [Example 93, Isopropyl 4-(2-(2-chlorophenyl)quinazolin-4-yl)piperazine-1-carboxylate]: the “Selectivity, CB2 vs. CB1” value in assay [1] is reported as “+ (+ indicates > 10−fold)”. The compound also registered an EC50 in assay [2] (setting [4]) of over 1 µM.

Consider `FC(F)(F)Oc1ccc2nc(-c3ccccc3Cl)nc(N3CCCC3)c2c1` [Example 182, 2-(2-Chlorophenyl)-4-(pyrrolidin-1-yl)-6-(trifluoromethoxy) quinazoline], for which the “Selectivity, CB2 vs. CB1” value in assay [1] is “− (− indicates ≦ 10−fold)”. For the same compound, in assay [2] (setting [4]), the concentration for a half-maximal effect (EC50) is over 1 µM.

Turning to `CC(=O)N1CCN(c2nc(-c3ccc(Cl)cc3)nc3ccc(Cl)cc23)CC1` [Example 253, 1-(4-(6-Chloro-2-(4-chlorophenyl)quinazolin-4-yl)piperazin-1-yl)ethanone], in assay [1], the “Selectivity, CB2 vs. CB1” value is listed as “− (− indicates ≦ 10−fold)”. Besides, in assay [2] (setting [3]), the 50% effective concentration (EC50) is over 1 µM.

Regarding `Cc1ccccc1-c1nc(N2CCOCC2)c2ccccc2n1` [Example 156, 4-Morpholin-4-yl-2-o-tolylquinazoline], in assay [1], the “Selectivity, CB2 vs. CB1” value is reported as “− (− indicates ≦ 10−fold)”. Also, the EC50 in assay [2] (setting [3]) is over 1 µM.

Take `CCCOC(=O)N1CCN(c2nc(-c3ccccc3Cl)nc3ccccc23)CC1` [Example 94, Propyl 4-(2-(2-chlorophenyl)quinazolin-4-yl)piperazine-1-carboxylate]: in assay [1], the “Selectivity, CB2 vs. CB1” value is “− (− indicates ≦ 10−fold)”. Also, in assay [2] (setting [3]), the EC50 was over 1 µM.

As for `Clc1ccc(-c2nc(NCc3ccccc3)c3ccccc3n2)c(Cl)c1` [Example 31, Benzyl[2-(2,4-dichlorophenyl)quinazolin-4-yl]amine], the “Selectivity, CB2 vs. CB1” value in assay [1] is listed as “− (− indicates ≦ 10−fold)”. In addition, the EC50 in assay [2] (setting [3]) is over 1 µM.

Regarding `CC1(C)C(C(=O)N2CCN(c3nc(-c4ccccc4Cl)nc4ccccc34)CC2)C1(C)C` [Example 100, (4-(2-(2-Chlorophenyl)quinazolin-4-yl)piperazin-1-yl)(2,2,3,3-tetramethylcyclopropyl)methanone], the “Selectivity, CB2 vs. CB1” value in assay [1] is on record as “− (− indicates ≦ 10−fold)”. The compound further showed an EC50 in assay [2] (setting [4]) of over 1 µM.

As for `CN(c1ccccc1Cl)c1nc(-c2ccc(C(C)(C)C)cc2)nc2ccccc12` [Example 134, 2-(4-tert-Butylphenyl)quinazolin-4-yl 2-chlorophenyl-N-methylamine], the “Selectivity, CB2 vs. CB1” value in assay [1] is “− (− indicates ≦ 10−fold)”. For the same compound, the EC50 in assay [2] (setting [3]) is under 1 µM.

Turning to `Fc1ccccc1-c1nc(N2CCOCC2)c2ccccc2n1` [Example 149, 2-(2-Fluorophenyl)-4-morpholin-4-ylquinazoline], the “Selectivity, CB2 vs. CB1” value in assay [1] was “− (− indicates ≦ 10−fold)”. Moreover, the EC50 in assay [2] (setting [3]) was over 1 µM.

With `Clc1ccccc1-c1nc(N2CCc3ccccc3C2)c2ccccc2n1` [Example 61, 2-(2-Chlorophenyl)-4-(3,4-dihydroisoquinolin-2(1H)-yl)quinazoline], the “Selectivity, CB2 vs. CB1” value in assay [1] is on record as “− (− indicates ≦ 10−fold)”. The 50% effective concentration (EC50) in assay [2] (setting [3]) is under 1 µM.

In the case of `Fc1ccc(-c2nc(N3CCOCC3)c3ccccc3n2)c(F)c1` [Example 25, 4-(2-(2,4-Difluorophenyl)quinazolin-4-yl)morpholine], the “Selectivity, CB2 vs. CB1” value in assay [1] is on record as “− (− indicates ≦ 10−fold)”. In addition, in assay [2] (setting [3]), the 50% effective concentration (EC50) is over 1 µM.

For `CN1CCN(c2nc(-c3ccccc3Cl)nc3ccc(Cl)cc23)CC1` [Example 208, 6-Chloro-2-(2-chlorophenyl)-4-(4-methylpiperazin-1-yl)quinazoline], the “Selectivity, CB2 vs. CB1” value in assay [1] is given as “+ (+ indicates > 10−fold)”. Moreover, the concentration giving a half-maximal response (EC50) in assay [2] (setting [3]) is under 1 µM.

For the compound `CCN1[C@H](C)CN(c2nc(-c3ccccc3Cl)nc3ccccc23)C[C@@H]1C` [Example 80, 2-(2-Chlorophenyl)-4-((3S,5R)-4-ethyl-3,5-dimethylpiperazin-1-yl)quinazoline], the “Selectivity, CB2 vs. CB1” value in assay [1] is recorded as “− (− indicates ≦ 10−fold)”. For the same compound, the concentration giving a half-maximal response (EC50) in assay [2] (setting [3]) was under 1 µM.

As to `Clc1ccc(-c2nc(N3CCCCC3)c3ccccc3n2)cc1` [Example 127, 2-(4-Chlorophenyl)-4-(piperidin-1-yl)quinazoline], the “Selectivity, CB2 vs. CB1” value in assay [1] was “− (− indicates ≦ 10−fold)”. In assay [2] (setting [3]), the EC50 was over 1 µM.

On to `CN1CCN(c2nc(-c3ccc(C(C)(C)C)cc3)nc3ccccc23)CC1` [Example 109, 2-(4-tert-Butylphenyl)-4-(4-methylpiperazin-1-yl)quinazoline], for which the “Selectivity, CB2 vs. CB1” value in assay [1] is given as “+ (+ indicates > 10−fold)”. In assay [2] (setting [3]), the EC50 is under 1 µM.

In the case of `FC(F)(F)c1ccc(-c2nc(N3CCCCC3)c3ccccc3n2)cc1` [Example 44, 4-(Piperidin-1-yl)-2-(4-(trifluoromethyl)phenyl)quinazoline], the “Selectivity, CB2 vs. CB1” value in assay [1] is “− (− indicates ≦ 10−fold)”. Moreover, the EC50 in assay [2] (setting [3]) is under 1 µM.

Regarding `CCOC(=O)N1CCN(c2nc(-c3ccccc3Cl)nc3cc(C(=O)NC(C)C)ccc23)CC1` [Example 320, Ethyl 4-(2-(2-chlorophenyl)-7-(isopropylcarbamoyl)quinazolin-4-yl)piperazine-1-carboxylate], in assay [1], the “Selectivity, CB2 vs. CB1” value is on record as “− (− indicates ≦ 10−fold)”. For the same compound, the 50% effective concentration (EC50) in assay [2] (setting [3]) was over 1 µM.

In the case of `CC(C)(C)c1ccc(-c2nc(N3CCCCC3)c3ccccc3n2)cc1` [Example 111, 2-(4-tert-Butylphenyl)-4-(piperidin-1-yl)quinazoline], in assay [1], the “Selectivity, CB2 vs. CB1” value is listed as “− (− indicates ≦ 10−fold)”. In addition, in assay [2] (setting [3]), the EC50 is under 1 µM.

On to `CC(=O)N1CCN(c2nc(C(C)c3ccccc3C)nc3ccccc23)CC1` (stereo not shown) [Example 344, 1-(4-(2-(1-o-Tolylethyl)quinazolin-4-yl)piperazin-1-yl)ethanone], for which, in assay [1], the “Selectivity, CB2 vs. CB1” value is “+ (+ indicates > 10−fold)”. Besides, the EC50 in assay [2] (setting [3]) was under 1 µM.

As for `Clc1ccccc1Nc1nc(-c2ccccc2)nc2ccccc12` [Example 49, N-(2-Chlorophenyl)-2-phenylquinazolin-4-amine], the “Selectivity, CB2 vs. CB1” value in assay [1] was “− (− indicates ≦ 10−fold)”. Further, the 50% effective concentration (EC50) in assay [2] (setting [3]) was over 1 µM.

On to `COc1ccc2nc(-c3ccccc3Cl)nc(N3CCN(C)CC3)c2c1` [Example 177, 2-(2-Chlorophenyl)-6-methoxy-4-(4-methylpiperazin-1-yl)quinazoline], for which the “Selectivity, CB2 vs. CB1” value in assay [1] is listed as “− (− indicates ≦ 10−fold)”. For the same compound, in assay [2] (setting [3]), the EC50 is under 1 µM.

As for `COc1ccc2nc(-c3ccccc3Cl)nc(N3CCCCC3)c2c1` [Example 178, 2-(2-Chlorophenyl)-6-methoxy-4-(piperidin-1-yl)quinazoline], the “Selectivity, CB2 vs. CB1” value in assay [1] was “− (− indicates ≦ 10−fold)”. For the same compound, in assay [2] (setting [3]), the concentration giving a half-maximal response (EC50) was under 1 µM.

With `O=C(C1CC1)N1CCN(c2nc(-c3ccccc3Cl)nc3ccccc23)CC1` [Example 97, (4-(2-(2-Chlorophenyl)quinazolin-4-yl)piperazin-1-yl)(cyclopropyl)methanone], the “Selectivity, CB2 vs. CB1” value in assay [1] is “+ (+ indicates > 10−fold)”. The EC50 in assay [2] (setting [3]) was under 1 µM.

These data come from patent publication US20090209536A1, “AMINOQUINAZOLINE CANNABINOID RECEPTOR MODULATORS FOR TREATMENT OF DISEASE” (KALYPSYS, INC., priority 2007, published 2009).
